Assay results as given in US20230085307A1, “PYRIDAZINONE COMPOUND AND HERBICIDE” (NISSAN CHEMICAL CORPORATION, priority 2019, published 2023).

Key:
rice flat sedge = assay: Test Example 3: herbicidal effect by foliage application, Wagner pot (Table 18, symbol E); format: in vivo, rice flat sedge (Cyperus iria); details: 320 g/ha
Procedure, shortened: (§1)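 Plants were sown in alluvial soil held under 0.1–0.5 cm standing water and grown 14 days in a greenhouse at 25–30 °C. An emulsifiable formulation, water-diluted to the set dose, was then sprayed onto the foliage, and effects were scored three weeks later using previously defined criteria.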

blackgrass [1] = assay: Test Example 4: herbicidal effect by soil treatment (Table 19, symbol J); format: in vivo, blackgrass (Alopecurus myosuroides); details: amount of applied herbicide 320 g/ha
Procedure, shortened: (§2)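 Emulsion of test compound, water-diluted to predetermined amount, sprayed on soil after sowing (seed depth ~1.5 cm, sterilized diluvial soil). Greenhouse, 25–30° C. Effect graded at three weeks post-spray.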

chickweed [2] = assay: Test Example 5: herbicidal effect by foliage application, plastic box (Table 20, symbol P); format: in vivo, common chickweed (Stellaria media); details: foliage application, 320 g/ha, evaluated three weeks after application
Procedure, shortened: (§3)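 Post-emergence foliar test in sterilized diluvial soil. Compound applied as water-diluted emulsion at a predetermined rate to 14-day-old plants; evaluation at three weeks.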

windgrass [3] = assay: Test Example 5: herbicidal effect by foliage application, plastic box (Table 20, symbol L); format: in vivo, windgrass (Apera spica-venti); details: foliage application, 320 g/ha, evaluated three weeks after application
Procedure, shortened: as §3

windgrass [4] = assay: Test Example 4: herbicidal effect by soil treatment (Table 19, symbol L); format: in vivo, windgrass (Apera spica-venti); details: amount of applied herbicide 320 g/ha
Procedure, shortened: as §2

lambsquarters [5] = assay: Test Example 5: herbicidal effect by foliage application, plastic box (Table 20, symbol O); format: in vivo, lambsquarters (Chenopodium album); details: foliage application, 320 g/ha, evaluated three weeks after application
Procedure, shortened: as §3

false cleavers [6] = assay: Test Example 4: herbicidal effect by soil treatment (Table 19, symbol Q); format: in vivo, false cleavers (Galium spurium); details: amount of applied herbicide 320 g/ha
Procedure, shortened: as §2

Japanese bulrush = assay: Test Example 2: herbicidal activity, application during weed generation under submerged conditions (Table 17, symbol B); format: in vivo, Japanese bulrush (Schoenoplectus juncoides); details: AAH 320 g/ha; application during weed generation, submerged conditions
Procedure, shortened: (§4)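 In this pot test, flooded alluvial soil (water depth 4 cm) holds all three species sown as a mixture. Once seedlings have one to two leaves, the compound's emulsion, thinned with water to the intended dose, is poured on the water; grading follows after three weeks on the earlier criteria.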

persian speedwell [7] = assay: Test Example 4: herbicidal effect by soil treatment (Table 19, symbol R); format: in vivo, Persian speedwell (Veronica persica); details: amount of applied herbicide 320 g/ha
Procedure, shortened: as §2

barnyard grass [8] = assay: Test Example 3: herbicidal effect by foliage application, Wagner pot (Table 18, symbol H); format: in vivo, barnyard grass (Echinochloa crus-galli); details: 320 g/ha
Procedure, shortened: as §1

green foxtail [9] = assay: Test Example 5: herbicidal effect by foliage application, plastic box (Table 20, symbol G); format: in vivo, green foxtail (Setaria viridis); details: foliage application, 320 g/ha, evaluated three weeks after application
Procedure, shortened: as §3

Chinese sprangletop = assay: Test Example 3: herbicidal effect by foliage application, Wagner pot (Table 18, symbol D); format: in vivo, chinese sprangletop (Leptochloa chinensis); details: 320 g/ha
Procedure, shortened: as §1

Italian ryegrass [10] = assay: Test Example 5: herbicidal effect by foliage application, plastic box (Table 20, symbol K); format: in vivo, Italian ryegrass (Lolium multiflorum); details: foliage application, 320 g/ha, evaluated three weeks after application
Procedure, shortened: as §3

barnyard grass [11] = assay: Test Example 5: herbicidal effect by foliage application, plastic box (Table 20, symbol H); format: in vivo, barnyard grass (Echinochloa crus-galli); details: foliage application, 320 g/ha, evaluated three weeks after application
Procedure, shortened: as §3

velvetleaf [12] = assay: Test Example 4: herbicidal effect by soil treatment (Table 19, symbol M); format: in vivo, velvetleaf (Abutilon theophrasti); details: amount of applied herbicide 320 g/ha
Procedure, shortened: as §2

southern crabgrass [13] = assay: Test Example 5: herbicidal effect by foliage application, plastic box (Table 20, symbol F); format: in vivo, southern crabgrass (Digitaria ciliaris); details: foliage application, 320 g/ha, evaluated three weeks after application
Procedure, shortened: as §3

wild oat [14] = assay: Test Example 5: herbicidal effect by foliage application, plastic box (Table 20, symbol I); format: in vivo, wild oat (Avena fatua); details: foliage application, 320 g/ha, evaluated three weeks after application
Procedure, shortened: as §3

southern crabgrass [15] = assay: Test Example 4: herbicidal effect by soil treatment (Table 19, symbol F); format: in vivo, southern crabgrass (Digitaria ciliaris); details: amount of applied herbicide 320 g/ha
Procedure, shortened: as §2

chickweed [16] = assay: Test Example 4: herbicidal effect by soil treatment (Table 19, symbol P); format: in vivo, common chickweed (Stellaria media); details: amount of applied herbicide 320 g/ha
Procedure, shortened: as §2

persian speedwell [17] = assay: Test Example 5: herbicidal effect by foliage application, plastic box (Table 20, symbol R); format: in vivo, Persian speedwell (Veronica persica); details: foliage application, 320 g/ha, evaluated three weeks after application
Procedure, shortened: as §3

blackgrass [18] = assay: Test Example 5: herbicidal effect by foliage application, plastic box (Table 20, symbol J); format: in vivo, blackgrass (Alopecurus myosuroides); details: foliage application, 320 g/ha, evaluated three weeks after application
Procedure, shortened: as §3

Italian ryegrass [19] = assay: Test Example 4: herbicidal effect by soil treatment (Table 19, symbol K); format: in vivo, Italian ryegrass (Lolium multiflorum); details: amount of applied herbicide 320 g/ha
Procedure, shortened: as §2

velvetleaf [20] = assay: Test Example 5: herbicidal effect by foliage application, plastic box (Table 20, symbol M); format: in vivo, velvetleaf (Abutilon theophrasti); details: foliage application, 320 g/ha, evaluated three weeks after application
Procedure, shortened: as §3

lambsquarters [21] = assay: Test Example 4: herbicidal effect by soil treatment (Table 19, symbol O); format: in vivo, lambsquarters (Chenopodium album); details: amount of applied herbicide 320 g/ha
Procedure, shortened: as §2

wild oat [22] = assay: Test Example 4: herbicidal effect by soil treatment (Table 19, symbol I); format: in vivo, wild oat (Avena fatua); details: amount of applied herbicide 320 g/ha
Procedure, shortened: as §2

late watergrass = assay: Test Example 2: herbicidal activity, application during weed generation under submerged conditions (Table 17, symbol A); format: in vivo, late watergrass (Echinochloa oryzicola); details: AAH 320 g/ha; application during weed generation, submerged conditions
Procedure, shortened: as §4

false cleavers [23] = assay: Test Example 5: herbicidal effect by foliage application, plastic box (Table 20, symbol Q); format: in vivo, false cleavers (Galium spurium); details: foliage application, 320 g/ha, evaluated three weeks after application
Procedure, shortened: as §3

oval-leafed pondweed = assay: Test Example 2: herbicidal activity, application during weed generation under submerged conditions (Table 17, symbol C); format: in vivo, oval-leafed pondweed (Monochoria vaginalis); details: AAH 320 g/ha; application during weed generation, submerged conditions
Procedure, shortened: as §4

redroot pigweed [24] = assay: Test Example 5: herbicidal effect by foliage application, plastic box (Table 20, symbol N); format: in vivo, redroot pigweed (Amaranthus retroflexus); details: foliage application, 320 g/ha, evaluated three weeks after application
Procedure, shortened: as §3

barnyard grass [25] = assay: Test Example 4: herbicidal effect by soil treatment (Table 19, symbol H); format: in vivo, barnyard grass (Echinochloa crus-galli); details: amount of applied herbicide 320 g/ha
Procedure, shortened: as §2

redroot pigweed [26] = assay: Test Example 4: herbicidal effect by soil treatment (Table 19, symbol N); format: in vivo, redroot pigweed (Amaranthus retroflexus); details: amount of applied herbicide 320 g/ha
Procedure, shortened: as §2

green foxtail [27] = assay: Test Example 4: herbicidal effect by soil treatment (Table 19, symbol G); format: in vivo, green foxtail (Setaria viridis); details: amount of applied herbicide 320 g/ha
Procedure, shortened: as §2

SMILES | herbicidal effect on E (rice flat sedge), rating 0-5 (rice flat sedge) | J: blackgrass, herbicidal effect rating (blackgrass [1]) | herbicidal effect on P: chickweed (chickweed [2]) | herbicidal effect on L: windgrass (windgrass [3]) | L: windgrass, herbicidal effect rating (windgrass [4]) | herbicidal effect on O: lambsquarters (lambsquarters [5]) | Q: false cleavers, herbicidal effect rating (false cleavers [6]) | herbicidal effect rating, B: Japanese bulrush (Japanese bulrush) | R: persian speedwell, herbicidal effect rating (persian speedwell [7]) | herbicidal effect on H (barnyard grass), rating 0-5 (barnyard grass [8]) | herbicidal effect on G: green foxtail (green foxtail [9]) | herbicidal effect on D (Chinese sprangletop), rating 0-5 (Chinese sprangletop) | herbicidal effect on K: Italian ryegrass (Italian ryegrass [10]) | herbicidal effect on H: barnyard grass (barnyard grass [11]) | M: velvetleaf, herbicidal effect rating (velvetleaf [12]) | herbicidal effect on F: southern crabgrass (southern crabgrass [13]) | herbicidal effect on I: wild oat (wild oat [14]) | F: southern crabgrass, herbicidal effect rating (southern crabgrass [15]) | P: chickweed, herbicidal effect rating (chickweed [16]) | herbicidal effect on R: persian speedwell (persian speedwell [17]) | further results
CCCC(=O)Oc1c(C)nn(C)c(=O)c1-c1c(-c2ccc(OC)cc2)sc2ccc(Cl)cc12 [2-104] | 5 (Herbicidal rate of 90% or more (almost completely withered)) | 0 (Herbicidal rate of 5% or less (almost no effect)) | 5 (Herbicidal rate of 90% or more (almost completely withered)) | 0 (Herbicidal rate of 5% or less (almost no effect)) | 0 (Herbicidal rate of 5% or less (almost no effect)) | 2 (Herbicidal rate of 20% or more and less than 40%) | 0 (Herbicidal rate of 5% or less (almost no effect)) | 0 (Herbicidal rate of 5% or less (almost no effect)) | 5 (Herbicidal rate of 90% or more (almost completely withered)) | 3 (Herbicidal rate of 40% or more and less than 70%) | 0 (Herbicidal rate of 5% or less (almost no effect)) | 0 (Herbicidal rate of 5% or less (almost no effect)) | 0 (Herbicidal rate of 5% or less (almost no effect)) | 0 (Herbicidal rate of 5% or less (almost no effect)) | 3 (Herbicidal rate of 40% or more and less than 70%) | 0 (Herbicidal rate of 5% or less (almost no effect)) | 0 (Herbicidal rate of 5% or less (almost no effect)) | 0 (Herbicidal rate of 5% or less (almost no effect)) | 3 (Herbicidal rate of 40% or more and less than 70%) | 5 (Herbicidal rate of 90% or more (almost completely withered)) | herbicidal effect on J: blackgrass (blackgrass [18]): 0 (Herbicidal rate of 5% or less (almost no effect)); K: Italian ryegrass, herbicidal effect rating (Italian ryegrass [19]): 0 (Herbicidal rate of 5% or less (almost no effect)); herbicidal effect on M: velvetleaf (velvetleaf [20]): 3 (Herbicidal rate of 40% or more and less than 70%); O: lambsquarters, herbicidal effect rating (lambsquarters [21]): 3 (Herbicidal rate of 40% or more and less than 70%); I: wild oat, herbicidal effect rating (wild oat [22]): 0 (Herbicidal rate of 5% or less (almost no effect)); herbicidal effect rating, A: late watergrass (late watergrass): 0 (Herbicidal rate of 5% or less (almost no effect)); herbicidal effect on Q: false cleavers (false cleavers [23]): 1 (Herbicidal rate of 5% or more and less than 20%); herbicidal effect rating, C: oval-leafed pondweed (oval-leafed pondweed): 2 (Herbicidal rate of 20% or more and less than 40%); herbicidal effect on N: redroot pigweed (redroot pigweed [24]): 3 (Herbicidal rate of 40% or more and less than 70%); H: barnyard grass, herbicidal effect rating (barnyard grass [25]): 0 (Herbicidal rate of 5% or less (almost no effect)); N: redroot pigweed, herbicidal effect rating (redroot pigweed [26]): 4 (Herbicidal rate of 70% or more and less than 90%); G: green foxtail, herbicidal effect rating (green foxtail [27]): 0 (Herbicidal rate of 5% or less (almost no effect))
CCCC(=O)Oc1c(C)nn(C)c(=O)c1-c1c(-c2ccc(OC(C)C)cc2)sc2ccc(Cl)cc12 [2-108] | 2 (Herbicidal rate of 20% or more and less than 40%) | 0 (Herbicidal rate of 5% or less (almost no effect)) | 4 (Herbicidal rate of 70% or more and less than 90%) | 0 (Herbicidal rate of 5% or less (almost no effect)) | 0 (Herbicidal rate of 5% or less (almost no effect)) | 1 (Herbicidal rate of 5% or more and less than 20%) | 0 (Herbicidal rate of 5% or less (almost no effect)) | 0 (Herbicidal rate of 5% or less (almost no effect)) | 4 (Herbicidal rate of 70% or more and less than 90%) | 4 (Herbicidal rate of 70% or more and less than 90%) | 0 (Herbicidal rate of 5% or less (almost no effect)) | 0 (Herbicidal rate of 5% or less (almost no effect)) | 0 (Herbicidal rate of 5% or less (almost no effect)) | 0 (Herbicidal rate of 5% or less (almost no effect)) | 0 (Herbicidal rate of 5% or less (almost no effect)) | 0 (Herbicidal rate of 5% or less (almost no effect)) | 0 (Herbicidal rate of 5% or less (almost no effect)) | 0 (Herbicidal rate of 5% or less (almost no effect)) | 0 (Herbicidal rate of 5% or less (almost no effect)) | 5 (Herbicidal rate of 90% or more (almost completely withered)) | herbicidal effect on J: blackgrass (blackgrass [18]): 0 (Herbicidal rate of 5% or less (almost no effect)); K: Italian ryegrass, herbicidal effect rating (Italian ryegrass [19]): 0 (Herbicidal rate of 5% or less (almost no effect)); herbicidal effect on M: velvetleaf (velvetleaf [20]): 2 (Herbicidal rate of 20% or more and less than 40%); O: lambsquarters, herbicidal effect rating (lambsquarters [21]): 0 (Herbicidal rate of 5% or less (almost no effect)); I: wild oat, herbicidal effect rating (wild oat [22]): 0 (Herbicidal rate of 5% or less (almost no effect)); herbicidal effect rating, A: late watergrass (late watergrass): 3 (Herbicidal rate of 40% or more and less than 70%); herbicidal effect on Q: false cleavers (false cleavers [23]): 0 (Herbicidal rate of 5% or less (almost no effect)); herbicidal effect rating, C: oval-leafed pondweed (oval-leafed pondweed): 0 (Herbicidal rate of 5% or less (almost no effect)); herbicidal effect on N: redroot pigweed (redroot pigweed [24]): 3 (Herbicidal rate of 40% or more and less than 70%); H: barnyard grass, herbicidal effect rating (barnyard grass [25]): 0 (Herbicidal rate of 5% or less (almost no effect)); N: redroot pigweed, herbicidal effect rating (redroot pigweed [26]): 0 (Herbicidal rate of 5% or less (almost no effect)); G: green foxtail, herbicidal effect rating (green foxtail [27]): 0 (Herbicidal rate of 5% or less (almost no effect))
